{"source": "the NIST ThermoML archive (doi:10.1016/j.jct.2006.03.004)", "details": "Liquid", "note": "Numbers after ± are expanded uncertainties.", "data": [{"smiles": "FCC(F)(F)F", "note": "[1,1,1,2-tetrafluoroethane]", "values": [{"measurement": "vapor or sublimation pressure", "setting": "282.55 K", "result": "404 ± 2.7", "unit": "kPa"}, {"measurement": "vapor or sublimation pressure", "setting": "293.32 K", "result": "572.6 ± 3.7", "unit": "kPa"}, {"measurement": "vapor or sublimation pressure", "setting": "303.24 K", "result": "773.3 ± 5", "unit": "kPa"}, {"measurement": "vapor or sublimation pressure", "setting": "312.66 K", "result": "1002.2 ± 6.5", "unit": "kPa"}, {"measurement": "vapor or sublimation pressure", "setting": "322.82 K", "result": "1304.9 ± 8.3", "unit": "kPa"}]}]}
